How the values were obtained:
Format in all cases: in vivo
[1] = system: common chickweed (Stellaria media); experiment: Test Example 5: foliar treatment, herbicidal activity index; set-up: key: 0: no or little difference in the degree of germination or growth between the treated and the untreated tested plants at the time of examination; 10: the test plants died complete or their germination or growth was completely inhibited; settings: foliar spray, 10 g/ha, 9 days after application, index 0 to 10
Method: A cylindrical plastic pot having a diameter of 18.5 cm and a depth of 15 cm was filled with soil and then seeded with common chickweed (Stellaria media). These test plants were grown in a greenhouse for 29 days. After then, each of the compound 1-2 and Compound A was formulated into an emulsifiable concentrate according to Formulation Example 2 and then diluted to the prescribed amount with water containing a spreading agent and the dilution was uniformly sprayed over the foliage of the test plants with a sprayer at a rate of 1000 liters per hectare. After the application, the test plants were grown in the greenhouse for 9 days, and the herbicidal activity was examined.

[2] = system: barnyardgrass (Echinochloa crus-galli); experiment: Test Example 2: soil surface treatment, herbicidal activity; settings: sprayed over the surface of the soil, 500 g/ha, 7 days after application
Text: (§1) A cylindrical plastic pot having a diameter of 10 cm and a depth of 10 cm was filled with soil and then seeded with Ivyleaf morningglory (Ipomoea hederacea), velvetleaf (Abutilon theophrasti) and barnyardgrass (Echinochloa crus-galli). Then, each of the compounds 1-1,2-1 and 3-1 was formulated into an emulsifiable concentrate according to Formulation Example 2 and then diluted to the prescribed amount with water, and the dilution was uniformly sprayed over the surface of the soil with a sprayer at a rate of 1000 liters per hectare. After the application, the test plants were grown in the greenhouse for 7 days, and the herbicidal activity of the applied composition was examined.

[3] = system: velvetleaf (Abutilon theophrasti); experiment: as above; settings: sprayed over the surface of the soil, 500 g/ha, 7 days after application
Text: as §1

[4] = system: Ivyleaf morningglory (Ipomoea hederacea); experiment: as above; settings: sprayed over the surface of the soil, 500 g/ha, 7 days after application
Text: as §1

[5] = system: barnyardgrass (Echinochloa crus-galli); experiment: Test Example 1: foliar treatment, herbicidal activity; settings: foliar spray, 125 g/ha, 7 days after application
Method: (§2) A cylindrical plastic pot having a diameter of 10 cm and a depth of 10 cm was filled with soil and then seeded with Ivyleaf morningglory (Ipomoea hederacea), velvetleaf (Abutilon theophrasti), barnyardgrass (Echinochloa crus-galli) and blackgrass (Alopecurus myosuroides). These test plants were grown in a greenhouse for 9 days. Then, each of compounds 1-1,2-1, 3-1,3-2, 3-11 and 3-12 was formulated into an emulsifiable concentrate according to Formulation Example 2 and then diluted to the prescribed amount with water containing a spreading agent and the dilution was uniformly sprayed over the foliage of the test plants with a sprayer at a rate of 1000 liters per hectare After the application, the test plants were grown in the greenhouse for 7 days, and the herbicidal activity of the applied composition was determined.

[6] = system: blackgrass (Alopecurus myosuroides); experiment: as above; settings: foliar spray, 125 g/ha, 7 days after application
Method: as §2

[7] = system: velvetleaf (Abutilon theophrasti); experiment: as above; settings: foliar spray, 125 g/ha, 7 days after application
Method: as §2

[8] = system: Ivyleaf morningglory (Ipomoea hederacea); experiment: as above; settings: foliar spray, 125 g/ha, 7 days after application
Method: as §2

[9] = system: barnyardgrass (Echinochloa crus-galli); experiment: Test Example 4: soil surface treatment, herbicidal activity; settings: sprayed over the surface of the soil, 2000 g/ha, 7 days after application
Text: as §1, with “theophrasti),” for “theophrasti) and”, “crus-galli) and blackgrass (Alopecurus myosuroides).” for “crus-galli).”, “3-2,3-11, 3-12, 3-16, 3-20” for “1-1,2-1”, “3-198” for “3-1”

[10] = system: blackgrass (Alopecurus myosuroides); experiment: as above; settings: sprayed over the surface of the soil, 2000 g/ha, 7 days after application
Text: as §1, with “theophrasti),” for “theophrasti) and”, “crus-galli) and blackgrass (Alopecurus myosuroides).” for “crus-galli).”, “3-2,3-11, 3-12, 3-16, 3-20” for “1-1,2-1”, “3-198” for “3-1”

[11] = system: velvetleaf (Abutilon theophrasti); experiment: as above; settings: sprayed over the surface of the soil, 2000 g/ha, 7 days after application
Text: as §1, with “theophrasti),” for “theophrasti) and”, “crus-galli) and blackgrass (Alopecurus myosuroides).” for “crus-galli).”, “3-2,3-11, 3-12, 3-16, 3-20” for “1-1,2-1”, “3-198” for “3-1”

[12] = system: Ivyleaf morningglory (Ipomoea hederacea); experiment: as above; settings: sprayed over the surface of the soil, 2000 g/ha, 7 days after application
Text: as §1, with “theophrasti),” for “theophrasti) and”, “crus-galli) and blackgrass (Alopecurus myosuroides).” for “crus-galli).”, “3-2,3-11, 3-12, 3-16, 3-20” for “1-1,2-1”, “3-198” for “3-1”

[13] = system: barnyardgrass (Echinochloa crus-galli); experiment: Test Example 3: foliar treatment, herbicidal activity; settings: foliar spray, 500 g/ha, 7 days after application
Method: (§3) A cylindrical plastic pot having a diameter of 10 cm and a depth of 10 cm was filled with soil and then seeded with Ivyleaf morningglory (Ipomoea hederacea), velvetleaf (Abutilon theophrasti) and barnyardgrass (Echinochloa crus-galli). These test plants were grown in a greenhouse for 9 days. After then, each of the compounds 3-16, 3-20 and 3-198 was formulated into an emulsifiable concentrate according to Formulation Example 2 and then diluted to the prescribed amount with water containing a spreading agent and the dilution was uniformly sprayed over the foliage of the test plants with a sprayer at a rate of 1000 liters per hectare. After the application, the test plants were grown in the greenhouse for 7 days, and the herbicidal activity was examined.

[14] = system: velvetleaf (Abutilon theophrasti); experiment: as above; settings: foliar spray, 500 g/ha, 7 days after application
Method: as §3

[15] = system: Ivyleaf morningglory (Ipomoea hederacea); experiment: as above; settings: foliar spray, 500 g/ha, 7 days after application
Method: as §3

Row | Structure (SMILES) | Herbicidal activity [1] | emergence of barnyardgrass [9] | emergence of blackgrass [10] | emergence of velvetleaf [11] | emergence of Ivyleaf morningglory [12] | growth of barnyardgrass [13] | growth of velvetleaf [14] | growth of Ivyleaf morningglory [15] | other results
1 | CCOC(=O)C(C)Oc1ccc(Oc2cc(-n3c(=O)cc(C(F)(F)F)n(C)c3=O)c(F)cc2Cl)cc1 (stereo not drawn) [Compound 1-2, ethyl 2-[4-{2-chloro-4-fluoro-5-[3-methyl-2,6-dioxo-4-(trifluoromethyl)-1,2,3,6-tetrahydropyrimidin-1-yl]phenoxy}phenoxy]propionate] | 10 | – | – | – | – | – | – | – | –
2 | COC(=O)C(C)Oc1ccccc1Oc1cc(-n2c(=O)cc(C(F)(F)F)n(C)c2=O)c(F)cc1Cl (stereo not drawn) [Compound 3-1, methyl 2-[2-{2-chloro-4-fluoro-5-[3-methyl-2,6-dioxo-4-(trifluoromethyl)-1,2,3,6-tetrahydropyrimidin-1-yl]phenoxy}phenoxy]propionate] | – | – | – | – | – | – | – | – | emergence of barnyardgrass [2]: completely controlled; emergence of velvetleaf [3]: completely controlled; emergence of Ivyleaf morningglory [4]: completely controlled; growth of barnyardgrass [5]: completely controlled; growth of blackgrass [6]: completely controlled; growth of velvetleaf [7]: completely controlled; growth of Ivyleaf morningglory [8]: completely controlled
3 | Cn1c(C(F)(F)F)cc(=O)n(-c2cc(Oc3ccccc3OCC(=O)OC(C)(C)C)c(Cl)cc2F)c1=O [Compound 3-16] | – | completely controlled | completely controlled | completely controlled | completely controlled | completely controlled | completely controlled | completely controlled | –
4 | C=CCOC(=O)COc1ccccc1Oc1cc(-n2c(=O)cc(C(F)(F)F)n(C)c2=O)c(F)cc1Cl [Compound 3-20, allyl [2-{2-chloro-4-fluoro-5-[3-methyl-2,6-dioxo-4-(trifluoromethyl)-1,2,3,6-tetrahydropyrimidin-1-yl]phenoxy}phenoxy]acetate] | – | completely controlled | completely controlled | completely controlled | completely controlled | completely controlled | completely controlled | completely controlled | –
5 | CC(C)COC(=O)COc1ccccc1Oc1cc(-n2c(=O)cc(C(F)(F)F)n(C)c2=O)c(F)cc1Cl [Compound 3-198, isobutyl [2-{2-chloro-4-fluoro-5-[3-methyl-2,6-dioxo-4-(trifluoromethyl)-1,2,3,6-tetrahydropyrimidin-1-yl]phenoxy}phenoxy]acetate] | – | completely controlled | completely controlled | completely controlled | completely controlled | completely controlled | completely controlled | completely controlled | –
6 | CCOC(=O)C(C)Oc1ccc(Oc2cc(-n3c(=O)cc(C(F)(F)F)n(N)c3=O)c(F)cc2Cl)cc1 (stereo not drawn) [Compound A, reference compound] | 5 | – | – | – | – | – | – | – | –

— US6667413B2, “Uracil compounds and use thereof” (Sumitomo Chemical Company, Limited, priority 1999, dated 2003)
